Measured values: US7691844B2, “Nonpeptide substituted spirobenzoazepines as vasopressin antagonists” (Ortho-McNeil Pharmaceutical, Inc., priority 2000, dated 2010)

Legend:
V1a = V1a (Homo sapiens, UniProt P37288); test: In-vitro receptor binding assay (3H-arginine-8-vasopressin), V1a
Method: (§1) (A) In-Vitro Binding Assay […] The reaction plates are allowed to sit at room temperature for one hour. The samples are filtered through Unifilter GF/C plates (presoaked in 0.3 polyethyleneimine). The plates are washed 5 times with cold physiological saline containing 0.05% Tween 20. After drying, the bottom of the filter plates are sealed and 0.025 ml of Microscint-20 is added to each filter. The top of the plate is sealed, and the plate is counted. Non-specific binding is determined by the addition of 1.25 μM […]-vasopressin in those wells. % Inh. is calculated as follows: […]

human V2 receptor = human V2 receptor (Homo sapiens, UniProt P30518); test: In-vitro receptor binding assay (3H-arginine-8-vasopressin), V2
Sequence of human V2 receptor (P30518 whole entry): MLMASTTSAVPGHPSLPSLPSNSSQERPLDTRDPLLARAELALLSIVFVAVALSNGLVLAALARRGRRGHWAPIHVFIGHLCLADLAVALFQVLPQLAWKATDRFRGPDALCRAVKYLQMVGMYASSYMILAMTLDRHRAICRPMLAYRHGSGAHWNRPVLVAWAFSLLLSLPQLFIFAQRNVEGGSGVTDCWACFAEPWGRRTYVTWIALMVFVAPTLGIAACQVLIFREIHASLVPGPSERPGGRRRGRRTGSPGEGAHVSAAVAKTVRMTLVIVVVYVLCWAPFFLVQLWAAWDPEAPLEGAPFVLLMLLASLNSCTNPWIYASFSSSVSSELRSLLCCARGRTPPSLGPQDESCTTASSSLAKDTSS
Method: as §1

[1] = @ 1 μM, read-out: Receptor Binding V2 (% Inh. @ concentration in μM)
[2] = @ 0.1 μM, read-out: Receptor Binding V1a (% Inh. @ concentration in μM)
[3] = @ 0.1 μM, read-out: Receptor Binding V2 (% Inh. @ concentration in μM)
[4] = @ 1 μM, read-out: Receptor Binding V1a (% Inh. @ concentration in μM)

Sequence of V1a (P37288 whole entry): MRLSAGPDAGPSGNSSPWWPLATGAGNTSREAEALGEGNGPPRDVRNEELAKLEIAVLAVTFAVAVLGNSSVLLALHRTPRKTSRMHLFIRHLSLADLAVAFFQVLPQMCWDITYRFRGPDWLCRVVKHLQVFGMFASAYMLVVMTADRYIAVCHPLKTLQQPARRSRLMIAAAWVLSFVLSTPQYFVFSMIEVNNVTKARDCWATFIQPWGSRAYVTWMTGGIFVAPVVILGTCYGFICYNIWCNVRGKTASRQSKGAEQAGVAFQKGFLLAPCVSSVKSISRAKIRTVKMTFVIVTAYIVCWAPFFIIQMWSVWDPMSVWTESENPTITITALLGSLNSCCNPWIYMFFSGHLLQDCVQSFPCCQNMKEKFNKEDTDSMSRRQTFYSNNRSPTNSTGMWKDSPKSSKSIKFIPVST

SMILES | IC50 (V1a) [µM] | inhibition at 1 µM (human V2 receptor; [1]) [%] | also measured
N#Cc1ccc(C(=O)N2CCC3(CCCCC3)Cc3ccccc32)cc1 [Compound 24] | 0.8 | – | inhibition at 10 µM (human V2 receptor; @ 10 μM, read-out: Receptor Binding V2 (% Inh. @ concentration in μM)): 26%
O=C(Nc1ccc(C(=O)N2CCC3(C=CCCC3)Cc3ccccc32)cc1)c1ccncc1 (stereo not shown) [Compound 104] | 0.051 | 36 | –
O=C(O)CNC(=O)C1=CC2(CC1)CCN(C(=O)c1ccc(NC(=O)c3ccccc3-c3ccccc3)cc1)c1ccccc1C2 (stereo not shown) [Compound 10] | 0.024 | – | IC50 (human V2 receptor): 0.018 µM
O=C(c1ccc(O)cc1)N1CCC2(C=CCCC2)Cc2ccccc21 (stereo not shown) [Compound 78] | 0.51 | 3 | –
O=C(c1ccc(C(F)(F)F)cc1)N1CCC2(C=CCCC2)Cc2ccccc21 (stereo not shown) [Compound 38] | 1.6 | – | Receptor Binding V2 (% Inh. @ concentration in μM) (human V2 receptor; @ 10 μM): 35% @ 10
O=C(Nc1ccc(C(=O)N2CCC3(C=CCCC3)Cc3ccccc32)cc1)c1ccc(-c2ccccc2)cc1 (stereo not shown) [Compound 84] | – | – | Receptor Binding V1a (% Inh. @ concentration in μM) (V1a; @ 1 μM): 35% @ 1; Receptor Binding V2 (% Inh. @ concentration in μM) (human V2 receptor; @ 1 μM): 2% @ 1
Cc1ccc(-c2ccccc2C(=O)Nc2ccc(C(=O)N3CCC4(C=CCCC4)Cc4ccccc43)c(Cl)c2)cc1 (stereo not shown) [Compound 117] | – | – | Receptor Binding V1a (% Inh. @ concentration in μM) (V1a; @ 0.1 μM): 30% @ 0.1; IC50 (human V2 receptor): 0.1 µM
Cc1ccc(F)cc1C(=O)Nc1ccc(C(=O)N2CCC3(C=CCCC3)Cc3ccccc32)c(Cl)c1 (stereo not shown) [Compound 111] | 0.8 | – | IC50 (human V2 receptor): 0.045 µM
COc1ccc(C(=O)N2CCC3(C=CCCC3)Cc3ccccc32)c(OC)c1 (stereo not shown) [Compound 74] | 0.19 | – | Receptor Binding V2 (% Inh. @ concentration in μM) (human V2 receptor; @ 1 μM): 27% @ 1
O=C(O)C1=CC2(CC1)CCN(C(=O)c1ccc(NC(=O)c3ccccc3F)cc1)c1ccccc1C2 (stereo not shown) [Compound 7, 4-(2-Fluorobenzoyl-4-aminobenzoyl)-3′-(carboxyl)-4-aza-[6,4]-spiro-[5,6]-benzoundec-2′-ene] | – | – | Receptor Binding V1a (% Inh. @ concentration in μM) (V1a; @ 0.1 μM): 43% @ 0.1; Receptor Binding V2 (% Inh. @ concentration in μM) (human V2 receptor; @ 0.1 μM): 15% @ 0.1
CC(C)CCOc1ccc(C(=O)N2CCC3(C=CCCC3)Cc3ccccc32)cc1 (stereo not shown) [Compound 179] | 0.096 | 15 | –
O=C(Nc1ccc(C(=O)N2CCC3(C=C(C(=O)N4CCN(c5ccncc5)CC4)CC3)Cc3ccccc32)cc1)c1ccccc1-c1ccccc1 (stereo not shown) [Compound 145] | – | – | inhibition at 0.1 µM (V1a; [2]): 66%; IC50 (human V2 receptor): 0.066 µM
Cc1ccc(F)cc1C(=O)Nc1ccc(C(=O)N2CCC3(C=C(C(=O)NCCCN4CCCC4)CC3)Cc3ccccc32)cc1 (stereo not shown) [Compound 157] | 0.016 | – | IC50 (human V2 receptor): 0.038 µM
Cc1ccc(F)cc1C(=O)Nc1ccc(C(=O)N2CCC3(C=C(CN4CCN(c5ccncc5)CC4)CC3)Cc3ccccc32)c(Cl)c1 (stereo not shown) [Compound 142] | – | – | inhibition at 0.1 µM (V1a; [2]): 25%; inhibition at 0.1 µM (human V2 receptor; [3]): 69%
CC(=O)c1ccn(-c2ccc(C(=O)N3CCC4(C=CCCC4)Cc4ccccc43)cc2F)c1 (stereo not shown) [Compound 177] | 0.044 | 30 | –
O=C(NCCN1CCCC1)C1=CC2(CC1)CCN(C(=O)c1ccc(NC(=O)c3ccccc3-c3ccccc3)cc1)c1ccccc1C2 (stereo not shown) [Compound 135] | 0.013 | – | IC50 (human V2 receptor): 0.024 µM
O=C(c1ccc(OCC2CCCCC2)cc1)N1CCC2(C=CCCC2)Cc2ccccc21 (stereo not shown) [Compound 183] | 0.25 | 18 | –

SMILES | IC50 (V1a) [µM] | inhibition at 1 µM (human V2 receptor; [1]) [%] | also measured
CC(=O)N1CCC(Oc2ccc(C(=O)N3CCC4(C=CCCC4)Cc4ccccc43)cc2F)CC1 (stereo not shown) [Compound 168, 4-(3-Fluoro-4-(N-acetylpiperidin-4-yloxy)benzoyl)-4-aza-[6,5]-spiro-[5,6]-benzododec-2′-ene] | – | 0 | inhibition at 0.1 µM (V1a; [2]): 50%
Cc1ccccc1C(=O)Nc1ccc(C(=O)C2Cc3ccccc3CC3(C=CCCC3)C2)cc1 (stereo not shown) [Compound 130] | 0.047 | – | Receptor Binding V2 (% Inh. @ concentration in μM) (human V2 receptor; @ 0.1 μM): 15% @ 0.1
COc1cc(NC(=O)c2cc(F)ccc2C)ccc1C(=O)N1CCC2(C=C(C(=O)O)CC2)Cc2ccccc21 (stereo not shown) [Compound 175] | – | – | inhibition at 0.1 µM (V1a; [2]): 15%; IC50 (human V2 receptor): 0.11 µM
O=C(O)c1ccn(-c2ccc(C(=O)N3CCC4(C=CCCC4)Cc4ccccc43)cc2)c1 (stereo not shown) [Compound 199] | – | – | inhibition at 0.1 µM (V1a; [2]): 0%; inhibition at 0.1 µM (human V2 receptor; [3]): 2%
O=C(NCc1ccc(C(=O)N2CCC3(C=CCCC3)Cc3ccccc32)cc1)c1ccccc1 (stereo not shown) [Compound 55] | – | – | Receptor Binding V1a (% Inh. @ concentration in μM) (V1a; @ 10 μM): 0% @ 10; Receptor Binding V2 (% Inh. @ concentration in μM) (human V2 receptor; @ 10 μM): 29% @ 10
COc1cc(C(=O)N2CCC3(C=C(C(=O)NCCN(C)C)CC3)Cc3ccccc32)ccc1-n1ccc(C=O)c1 (stereo not shown) [Compound 189, 4-[3-Methoxy-4-(pyrrol-1-yl-3-carboxaldehyde)benzoyl]-3′-[2-(N,N-dimethylamino)ethylcarboxamido]-4-aza-[6,4]-spiro-[5,6]-benzoundec-2′-ene] | 0.045 | 13 | –
CON(C)Cc1ccn(-c2ccc(C(=O)N3CCC4(C=C(C(=O)NCCN(C)C)CC4)Cc4ccccc43)cc2)c1 (stereo not shown) [Compound 210] | – | 22 | inhibition at 0.125 µM (V1a; @ 0.125 μM, read-out: Receptor Binding V1a (% Inh. @ concentration in μM)): 6%
COc1cc(C(=O)N2CCC3(C=C(C(=O)NCCN(C)C)CC3)Cc3ccccc32)ccc1N (stereo not shown) [Compound 187, 4-(4-Amino-3-methoxybenzoyl)-4-aza-3′-[2-(N,N-dimethylamino)ethylcarboxamido]-[6,4]-spiro-[5,6]-benzoundec-2′-ene] | – | 7 | inhibition at 1 µM (V1a; [4]): 54%
CCCCN1CCC(Oc2ccc(C(=O)N3CCC4(C=CCCC4)Cc4ccccc43)cc2F)CC1 (stereo not shown) [Compound 171] | – | 65 | inhibition at 0.1 µM (V1a; [2]): 24%
O=C(Nc1ccc(C(=O)N2CCC3(C=C(C(=O)N(CCN4CCOCC4)CCN4CCOCC4)CC3)Cc3ccccc32)cc1)c1ccccc1-c1ccccc1 (stereo not shown) [Compound 146] | – | – | inhibition at 0.1 µM (V1a; [2]): 48%; inhibition at 0.1 µM (human V2 receptor; [3]): 39%
Cc1ccc(C(=O)Nc2ccc(C(=O)N3CCC4(C=CCCC4)Cc4ccccc43)cc2)cc1 (stereo not shown) [Compound 87] | 0.074 | 47 | –
COc1cc(C(=O)N2CCC3(C=CCCC3)Cc3ccccc32)ccc1-n1ccc(CO)c1 (stereo not shown) [Compound 178, 4-[3-Methoxy-4-(3-hydroxymethylpyrrol-1-yl)benzoyl]-4-aza-[6,5]-spiro-[5,6]benzododec-2′-ene] | 0.013 | 53 | –
Cc1ccc(F)cc1C(=O)Nc1ccc(C(=O)N2CCC3(C=C(CN4CCN(CCN5CCOCC5)CC4)CC3)Cc3ccccc32)c(Cl)c1 (stereo not shown) [Compound 141] | – | – | inhibition at 0.1 µM (V1a; [2]): 44%; IC50 (human V2 receptor): 0.056 µM
CCN(C(=O)NCCCN(C)C)C(=O)C1=CC2(CC1)CCN(C(=O)c1ccc(N)c(OC)c1)c1ccccc1C2 (stereo not shown) [Compound 188] | – | 3 | inhibition at 1 µM (V1a; [4]): 27%
O=C(Nc1ccccc1)Nc1ccc(C(=O)N2CCC3(C=CCCC3)Cc3ccccc32)cc1 (stereo not shown) [Compound 83] | 0.17 | 25 | –
O=C(c1cc(C(F)(F)F)cc(C(F)(F)F)c1)N1CCC2(C=CCCC2)Cc2ccccc21 (stereo not shown) [Compound 50] | – | – | Receptor Binding V1a (% Inh. @ concentration in μM) (V1a; @ 10 μM): 20% @ 10; Receptor Binding V2 (% Inh. @ concentration in μM) (human V2 receptor; @ 10 μM): 26% @ 10
O=C(O)c1ccc(C(=O)N2CCC3(C=CCCC3)Cc3ccccc32)cc1 (stereo not shown) [Compound 65, 4-(4-Carboxybenzoyl)-4-aza-[6,5]-spiro-[5,6]-benzododec-2′-ene] | – | 11 | inhibition at 1 µM (V1a; [4]): 8%

Continued, in another order:

IC50 (V1a) [µM] | inhibition at 1 µM (human V2 receptor; [1]) [%] | SMILES | also measured
0.32 | – | Cc1ccc(C(=O)N2CCC3(C=CCCC3)Cc3ccccc32)cc1 (stereo not shown) [Compound 41] | Receptor Binding V2 (% Inh. @ concentration in μM) (human V2 receptor; @ 10 μM): 0% @ 10
0.56 | 54 | COC(=O)c1ccc(C(=O)N2Cc3ccccc3CC3(C=CCCC3)C2)cc1 (stereo not shown) [Compound 149] | –
0.046 | – | COC(=O)C1=CC2(CC1)CCN(C(=O)c1ccc(NC(=O)c3cc(F)ccc3F)cc1)c1ccccc1C2 (stereo not shown) [Compound 218] | inhibition at 0.2 µM (human V2 receptor; @ 0.2 μM, read-out: Receptor Binding V2 (% Inh. @ concentration in μM)): 23%
0.05 | – | Cc1cccc(C(=O)Nc2ccc(C(=O)N3CCC4(C=CCCC4)Cc4ccccc43)cc2)c1 (stereo not shown) [Compound 85] | IC50 (human V2 receptor): 0.38 µM
0.9 | 16 | O=C(c1ccc(OC(F)(F)F)cc1)N1CCC2(C=CCCC2)Cc2ccccc21 (stereo not shown) [Compound 77] | –
0.025 | 36 | O=C(c1ccc(-n2ccc(CO)c2)cc1)N1CCC2(C=CCCC2)Cc2ccccc21 (stereo not shown) [Compound 154] | –
0.114 | – | COc1cc(-n2ccc(C=O)c2)ccc1C(=O)N1CCC2(C=CCCC2)Cc2ccccc21 (stereo not shown) [Compound 166] | inhibition at 0.225 µM (human V2 receptor; @ 0.225 μM, read-out: Receptor Binding V2 (% Inh. @ concentration in μM)): 5%
– | 8 | CCCCC(=O)N1CCC(Oc2ccc(C(=O)N3CCC4(C=CCCC4)Cc4ccccc43)cc2F)CC1 (stereo not shown) [Compound 174] | inhibition at 0.1 µM (V1a; [2]): 0%
0.021 | – | O=C(Nc1ccc(C(=O)N2CCC3(CCCCC3=O)Cc3ccccc32)cc1)c1ccccc1-c1ccccc1 (stereo not shown) [Compound 31] | IC50 (human V2 receptor): 0.054 µM
0.14 | 47 | Cc1ccc(C(=O)Nc2ccc(C(=O)N3CCC4(C=CCCC4)Cc4ccccc43)cc2)cc1C (stereo not shown) [Compound 81] | –
– | 0 | CC(=O)Oc1ccc(C(=O)N2CCC3(C=CCCC3)Cc3ccccc32)cc1 (stereo not shown) [Compound 172] | inhibition at 0.1 µM (V1a; [2]): 15%
0.013 | – | COC(=O)CNC(=O)C1=CC2(CC1)CCN(C(=O)c1ccc(NC(=O)c3ccccc3-c3ccccc3)cc1)c1ccccc1C2 (stereo not shown) [Compound 12] | IC50 (human V2 receptor): 0.018 µM
0.016 | – | O=CC1=CC2(CC1)CCN(C(=O)c1ccc(NC(=O)c3ccccc3-c3ccccc3)cc1)c1ccccc1C2 (stereo not shown) [Compound 2, 4-(2-Phenylbenzoyl-4-aminobenzoyl)-3′-(formyl)-4-aza-[6,4]-spiro-[5,6]-benzoundec-2′-ene] | IC50 (human V2 receptor): 0.029 µM
